One may read the IC50 as the concentration needed to halve the response being measured.

A short description of the assay: Inhibition of soybean lipoxygenase assessed as formation of 13-hydroperoxylinoleic acid after 7 mins.

`COc1ccc2cc(C(C)C(=O)N3CCSCC3)ccc2c1` (stereo unspecified): the IC50 came out at 12 µM.

Source of the values: BindingDB's records for doi:10.1016/j.bmcl.2015.12.063 (Aristotelian University of Thessaloniki, 2016).
